Results: US10004701B2, “Methods and compositions for treating infection” (UNIVERSITY OF ROCHESTER, priority 2012, dated 2018)
Where a name gives a salt, the structure may show the parent alone. Read-outs that look alike come from different tables or passages of the source.

Experiments:
Test in all cases: AK assay 384-well format, Prestwick library screening
[1] = test system: A. baumannii strain 98-37-09; format: cell-based, Acinetobacter baumannii; details: for fold induction at 50 µM: Acinetobacter baumannii, 983709, 3 h
E. coli = format: cell-based, Escherichia coli; details: for fold induction at 50 µM: Escherichia coli, 3 h
E. faecium = format: cell-based, Enterococcus faecium; details: for fold induction at 50 µM: Enterococcus faecium, 3 h
K. pneumoniae = format: cell-based, Klebsiella pneumoniae; details: for fold induction at 50 µM: Klebsiella pneumoniae, 3 h
E. cloacae = format: cell-based, Enterobacter cloacae; details: for fold induction at 50 µM: Enterobacter cloacae, 3 h
[2] = test system: S. aureus strain USA300-0114; format: cell-based, Staphylococcus aureus; details: for fold induction at 50 µM: Staphylococcus aureus, USA300, 3 h
P. aeruginosa = format: cell-based, Pseudomonas aeruginosa; details: for fold induction at 50 µM: Pseudomonas aeruginosa, 3 h
[3] = planktonic A. baumannii, 50 μM final drug concentration, […], read-out: AK-based Prestwick Library Screening Results, A. baumannii (increase in extracellular AK activity)
[4] = planktonic E. coli, 50 μM final drug concentration, […], read-out: AK-based Prestwick Library Screening Results, E. coli (increase in extracellular AK activity)
[5] = planktonic E. faecium, 50 μM final drug concentration, […], read-out: AK-based Prestwick Library Screening Results, E. faecium (increase in extracellular AK activity)
[6] = planktonic K. pneumoniae, 50 μM final drug concentration, […], read-out: AK-based Prestwick Library Screening Results, K. pneumoniae (increase in extracellular AK activity)
[7] = planktonic E. cloacae, 50 μM final drug concentration, […], read-out: AK-based Prestwick Library Screening Results, E. cloacae (increase in extracellular AK activity)
[8] = planktonic S. aureus, 50 μM final drug concentration, […], read-out: AK-based Prestwick Library Screening Results, S. aureus (increase in extracellular AK activity)
[9] = planktonic P. aeruginosa, 50 μM final drug concentration, […], read-out: AK-based Prestwick Library Screening Results, P. aeruginosa (increase in extracellular AK activity)

## C=C1CC[C@H](O)C/C1=C/C=C1\CCC[C@]2(C)[C@@H]([C@H](C)CCCC(C)C)CC[C@@H]12 [Cholecalciferol]
[1]; [3]
  fold induction at 50 µM: 0.8
E. coli; [4]
  fold induction at 50 µM: 1
E. faecium; [5]
  fold induction at 50 µM: 0.9
K. pneumoniae; [6]
  fold induction at 50 µM: 0.7
E. cloacae; [7]
  fold induction at 50 µM: 1
[2]; [8]
  fold induction at 50 µM: 0.7
P. aeruginosa; [9]
  fold induction at 50 µM: 0.9

## CCCCC[C@H](O)/C=C/[C@H]1[C@H](O)CC(=O)[C@@H]1CCCCCCC(=O)O [Alprostadil]
[1]; planktonic A. baumannii, 50 μM final drug concentration, positive cutoff 3-fold increase, read-out: AK-based Prestwick library screening result, A. baumannii (fold increase in extracellular AK activity)
  fold induction at 50 µM: 1
E. coli; planktonic E. coli, 50 μM final drug concentration, positive cutoff 3-fold increase, read-out: AK-based Prestwick library screening result, E. coli (fold increase in extracellular AK activity)
  fold induction at 50 µM: 1.3
E. faecium; planktonic E. faecium, 50 μM final drug concentration, positive cutoff 3-fold increase, read-out: AK-based Prestwick library screening result, E. faecium (fold increase in extracellular AK activity)
  fold induction at 50 µM: 1
K. pneumoniae; planktonic K. pneumoniae, 50 μM final drug concentration, positive cutoff 3-fold increase, read-out: AK-based Prestwick library screening result, K. pneumoniae (fold increase in extracellular AK activity)
  fold induction at 50 µM: 1.1
E. cloacae; planktonic E. cloacae, 50 μM final drug concentration, positive cutoff 3-fold increase, read-out: AK-based Prestwick library screening result, E. cloacae (fold increase in extracellular AK activity)
  fold induction at 50 µM: 1.4
[2]; planktonic S. aureus, 50 μM final drug concentration, positive cutoff 3-fold increase, read-out: AK-based Prestwick library screening result, S. aureus (fold increase in extracellular AK activity)
  fold induction at 50 µM: 1.1
P. aeruginosa; planktonic P. aeruginosa, 50 μM final drug concentration, positive cutoff 3-fold increase, read-out: AK-based Prestwick library screening result, P. aeruginosa (fold increase in extracellular AK activity)
  fold induction at 50 µM: 1.1

## Clc1ccc(C(OCCN2CCCCC2)c2ccccc2)cc1 (stereo not drawn) [Cloperastine hydrochloride]
[1]; 50 μM final drug concentration, cutoff for positive-scoring molecules 3-fold increase, read-out: AK-based Prestwick Library Screening Results, A. baumannii (fold increase in extracellular AK activity)
  fold induction at 50 µM: 1.4
E. coli; 50 μM final drug concentration, cutoff for positive-scoring molecules 3-fold increase, read-out: AK-based Prestwick Library Screening Results, E. coli (fold increase in extracellular AK activity)
  fold induction at 50 µM: 1.2
E. faecium; 50 μM final drug concentration, cutoff for positive-scoring molecules 3-fold increase, read-out: AK-based Prestwick Library Screening Results, E. faecium (fold increase in extracellular AK activity)
  fold induction at 50 µM: 1.1
K. pneumoniae; 50 μM final drug concentration, cutoff for positive-scoring molecules 3-fold increase, read-out: AK-based Prestwick Library Screening Results, K. pneumoniae (fold increase in extracellular AK activity)
  fold induction at 50 µM: 1.2
E. cloacae; 50 μM final drug concentration, cutoff for positive-scoring molecules 3-fold increase, read-out: AK-based Prestwick Library Screening Results, E. cloacae (fold increase in extracellular AK activity)
  fold induction at 50 µM: 2
[2]; 50 μM final drug concentration, cutoff for positive-scoring molecules 3-fold increase, read-out: AK-based Prestwick Library Screening Results, S. aureus (fold increase in extracellular AK activity)
  fold induction at 50 µM: 1.3
P. aeruginosa; 50 μM final drug concentration, cutoff for positive-scoring molecules 3-fold increase, read-out: AK-based Prestwick Library Screening Results, P. aeruginosa (fold increase in extracellular AK activity)
  fold induction at 50 µM: 1.2

## C#CCN(C)[C@H](C)Cc1ccccc1 [Selegiline hydrochloride]
[1]; 50 μM final drug concentration, planktonic, […], read-out: AK-based Prestwick Library Screening Results, A. baumannii (fold increase in extracellular AK activity)
  fold induction at 50 µM: 1.1
E. coli; 50 μM final drug concentration, planktonic, […], read-out: AK-based Prestwick Library Screening Results, E. coli (fold increase in extracellular AK activity)
  fold induction at 50 µM: 1.3
E. faecium; 50 μM final drug concentration, planktonic, […], read-out: AK-based Prestwick Library Screening Results, E. faecium (fold increase in extracellular AK activity)
  fold induction at 50 µM: 1
K. pneumoniae; 50 μM final drug concentration, planktonic, […], read-out: AK-based Prestwick Library Screening Results, K. pneumoniae (fold increase in extracellular AK activity)
  fold induction at 50 µM: 1.2
E. cloacae; 50 μM final drug concentration, planktonic, […], read-out: AK-based Prestwick Library Screening Results, E. cloacae (fold increase in extracellular AK activity)
  fold induction at 50 µM: 1.6
[2]; 50 μM final drug concentration, planktonic, […], read-out: AK-based Prestwick Library Screening Results, S. aureus (fold increase in extracellular AK activity)
  fold induction at 50 µM: 1.1
P. aeruginosa; 50 μM final drug concentration, planktonic, […], read-out: AK-based Prestwick Library Screening Results, P. aeruginosa (fold increase in extracellular AK activity)
  fold induction at 50 µM: 1.2

## COc1ccc2[nH]c([S+]([O-])Cc3ncc(C)c(OC)c3C)nc2c1 (stereo not drawn) [Omeprazole]
[1]; planktonic A. baumannii, 50 μM final drug concentration, cutoff for positive-scoring molecules 3-fold increase, read-out: AK-based Prestwick Library Screening Results, A. baumannii (increase in extracellular AK activity)
  fold induction at 50 µM: 0.8
E. coli; planktonic E. coli, 50 μM final drug concentration, cutoff for positive-scoring molecules 3-fold increase, read-out: AK-based Prestwick Library Screening Results, E. coli (increase in extracellular AK activity)
  fold induction at 50 µM: 0.7
E. faecium; planktonic E. faecium, 50 μM final drug concentration, cutoff for positive-scoring molecules 3-fold increase, read-out: AK-based Prestwick Library Screening Results, E. faecium (increase in extracellular AK activity)
  fold induction at 50 µM: 0.8
K. pneumoniae; planktonic K. pneumoniae, 50 μM final drug concentration, cutoff for positive-scoring molecules 3-fold increase, read-out: AK-based Prestwick Library Screening Results, K. pneumoniae (increase in extracellular AK activity)
  fold induction at 50 µM: 0.6
E. cloacae; planktonic E. cloacae, 50 μM final drug concentration, cutoff for positive-scoring molecules 3-fold increase, read-out: AK-based Prestwick Library Screening Results, E. cloacae (increase in extracellular AK activity)
  fold induction at 50 µM: 0.8
[2]; planktonic S. aureus, 50 μM final drug concentration, cutoff for positive-scoring molecules 3-fold increase, read-out: AK-based Prestwick Library Screening Results, S. aureus (increase in extracellular AK activity)
  fold induction at 50 µM: 0.2
P. aeruginosa; planktonic P. aeruginosa, 50 μM final drug concentration, cutoff for positive-scoring molecules 3-fold increase, read-out: AK-based Prestwick Library Screening Results, P. aeruginosa (increase in extracellular AK activity)
  fold induction at 50 µM: 0.6

## CCC(C)(C)C(=O)O[C@H]1C[C@@H](C)C=C2C=C[C@H](C)[C@H](CC[C@@H]3C[C@@H](O)CC(=O)O3)[C@H]21 [Simvastatin]
[1]; read-out: AK-based Prestwick Library Screening Results, A. baumannii (fold increase in extracellular AK activity)
  fold induction at 50 µM: 2.5
E. coli; read-out: AK-based Prestwick Library Screening Results, E. coli (fold increase in extracellular AK activity)
  fold induction at 50 µM: 1.6
E. faecium; read-out: AK-based Prestwick Library Screening Results, E. faecium (fold increase in extracellular AK activity)
  fold induction at 50 µM: 1
K. pneumoniae; read-out: AK-based Prestwick Library Screening Results, K. pneumoniae (fold increase in extracellular AK activity)
  fold induction at 50 µM: 1.2
E. cloacae; read-out: AK-based Prestwick Library Screening Results, E. cloacae (fold increase in extracellular AK activity)
  fold induction at 50 µM: 1.5
[2]; read-out: AK-based Prestwick Library Screening Results, S. aureus (fold increase in extracellular AK activity)
  fold induction at 50 µM: 0.4
P. aeruginosa; read-out: AK-based Prestwick Library Screening Results, P. aeruginosa (fold increase in extracellular AK activity)
  fold induction at 50 µM: 1.1

## COC(=O)[C@H]1[C@H]2C[C@@H]3c4[nH]c5cc(OC)ccc5c4CCN3C[C@H]2C[C@@H](OC(=O)/C=C/c2cc(OC)c(OC)c(OC)c2)[C@@H]1OC [Rescinnamin]
[1]; planktonic A. baumannii, 50 μM final drug concentration, cutoff for positive-scoring molecules 3-fold increase
  AK-based Prestwick Library Screening Results, A. baumannii (increase in extracellular AK activity): 1.1
E. coli; planktonic E. coli, 50 μM final drug concentration, cutoff for positive-scoring molecules 3-fold increase
  AK-based Prestwick Library Screening Results, E. coli (increase in extracellular AK activity): 0.7
E. faecium; planktonic E. faecium, 50 μM final drug concentration, cutoff for positive-scoring molecules 3-fold increase
  AK-based Prestwick Library Screening Results, E. faecium (increase in extracellular AK activity): 1.0
K. pneumoniae; planktonic K. pneumoniae, 50 μM final drug concentration, cutoff for positive-scoring molecules 3-fold increase
  AK-based Prestwick Library Screening Results, K. pneumoniae (increase in extracellular AK activity): 0.6
E. cloacae; planktonic E. cloacae, 50 μM final drug concentration, cutoff for positive-scoring molecules 3-fold increase
  AK-based Prestwick Library Screening Results, E. cloacae (increase in extracellular AK activity): 0.6
[2]; planktonic S. aureus, 50 μM final drug concentration, cutoff for positive-scoring molecules 3-fold increase
  AK-based Prestwick Library Screening Results, S. aureus (increase in extracellular AK activity): 0.3
P. aeruginosa; planktonic P. aeruginosa, 50 μM final drug concentration, cutoff for positive-scoring molecules 3-fold increase
  AK-based Prestwick Library Screening Results, P. aeruginosa (increase in extracellular AK activity): 0.4

## CC1(C)NC(=O)N(c2ccc([N+](=O)[O-])c(C(F)(F)F)c2)C1=O [Nilutamide]
[1]; 50 μM final drug concentration, […], read-out: AK-based Prestwick Library Screening Results, A. baumannii (fold increase in extracellular AK activity)
  fold induction at 50 µM: 1.2
E. coli; 50 μM final drug concentration, […], read-out: AK-based Prestwick Library Screening Results, E. coli (fold increase in extracellular AK activity)
  fold induction at 50 µM: 1.2
E. faecium; 50 μM final drug concentration, […], read-out: AK-based Prestwick Library Screening Results, E. faecium (fold increase in extracellular AK activity)
  fold induction at 50 µM: 1
K. pneumoniae; 50 μM final drug concentration, […], read-out: AK-based Prestwick Library Screening Results, K. pneumoniae (fold increase in extracellular AK activity)
  fold induction at 50 µM: 1
E. cloacae; 50 μM final drug concentration, […], read-out: AK-based Prestwick Library Screening Results, E. cloacae (fold increase in extracellular AK activity)
  fold induction at 50 µM: 1.4
[2]; 50 μM final drug concentration, […], read-out: AK-based Prestwick Library Screening Results, S. aureus (fold increase in extracellular AK activity)
  fold induction at 50 µM: 1.3
P. aeruginosa; 50 μM final drug concentration, […], read-out: AK-based Prestwick Library Screening Results, P. aeruginosa (fold increase in extracellular AK activity)
  fold induction at 50 µM: 1.2

## CCCCc1ccc(C(=O)O)nc1 [Fusaric acid]
[1]; [3]
  fold induction at 50 µM: 0.9
E. coli; [4]
  fold induction at 50 µM: 0.8
E. faecium; [5]
  fold induction at 50 µM: 1.1
K. pneumoniae; [6]
  fold induction at 50 µM: 0.9
E. cloacae; [7]
  fold induction at 50 µM: 1.2
[2]; [8]
  fold induction at 50 µM: 0.9
P. aeruginosa; [9]
  fold induction at 50 µM: 1.1
